Measurements published in ChEMBL document CHEMBL1201862, “PubChem BioAssay data set” (2004).
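Following 48 hours of exposure in 96-well plates, responses at five concentrations were used to interpolate endpoints linearly. Abbreviation: GI50, concentration required for 50% inhibition of growth.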 The source made the active and inactive calls. Rule as the data show it: active = GI50 up to about 1.1 µM and inactive = higher.

What was measured:
Experiment in all cases: inhibition of tumour cell growth, NCI panel, 48 h
HT-29 = tested on: HT-29
SW-620 = tested on: SW-620
ACHN = tested on: ACHN
OVCAR-3 = tested on: OVCAR-3
IGROV-1 = tested on: IGROV-1
UO-31 = tested on: UO-31
OVCAR-5 = tested on: OVCAR-5
HCT-116 = tested on: HCT-116
NCI-H23 = tested on: NCI-H23
SNB-75 = tested on: SNB-75
RXF 393 = tested on: RXF 393
T47D = tested on: T47D
A498 = tested on: A498
HOP-92 = tested on: HOP-92
K562 = tested on: K562
TK-10 = tested on: TK-10
SF-268 = tested on: SF-268
MCF7 = tested on: MCF7
U-251 = tested on: U-251
CCRF-CEM = tested on: CCRF-CEM

## Cc1ccc(O)c(C(c2ccc(C(c3cc(C)ccc3O)c3cc(C)ccc3O)cc2)c2cc(C)ccc2O)c1
HT-29
  GI50: 1870 nM (inactive)
SW-620
  GI50: 1820 nM (inactive)
ACHN
  GI50: 1780 nM (inactive)
OVCAR-3
  GI50: 1740 nM (inactive)
IGROV-1
  GI50: 1670 nM (inactive)
UO-31
  GI50: 1850 nM (inactive)
OVCAR-5
  GI50: 1840 nM (inactive)
HCT-116
  GI50: 1670 nM (inactive)
NCI-H23
  GI50: 1790 nM (inactive)
SNB-75
  GI50: 1890 nM (inactive)
RXF 393
  GI50: 1790 nM (inactive)
T47D
  GI50: 1750 nM (inactive)
A498
  GI50: 1560 nM (inactive)
HOP-92
  GI50: 2320 nM (inactive)
K562
  GI50: 1770 nM (inactive)
TK-10
  GI50: 1560 nM (inactive)
SF-268
  GI50: 1620 nM (inactive)
MCF7
  GI50: 2310 nM (inactive)
U-251
  GI50: 1980 nM (inactive)
CCRF-CEM
  GI50: 2280 nM (inactive)

## CC(C)(C)OC(=O)C1=C(N)N(Cc2ccccc2)C2(C)C=CC(=O)C=C12 (stereo not given)
HT-29
  GI50: 4030 nM (inactive)
SW-620
  GI50: 2370 nM (inactive)
ACHN
  GI50: 2470 nM (inactive)
OVCAR-3
  GI50: 3100 nM (inactive)
IGROV-1
  GI50: 5310 nM (inactive)
UO-31
  GI50: 3520 nM (inactive)
OVCAR-5
  GI50: 18100 nM (inactive)
HCT-116
  GI50: 3270 nM (inactive)
NCI-H23
  GI50: 9290 nM (inactive)
SNB-75
  GI50: 13000 nM (inactive)
RXF 393
  GI50: 2440 nM (inactive)
T47D
  GI50: 3100 nM (inactive)
A498
  GI50: 10200 nM (inactive)
HOP-92
  GI50: 2160 nM (inactive)
K562
  GI50: 2740 nM (inactive)
TK-10
  GI50: 3440 nM (inactive)
SF-268
  GI50: 2180 nM (inactive)
MCF7
  GI50: 2500 nM (inactive)
U-251
  GI50: 8730 nM (inactive)
CCRF-CEM
  GI50: 2580 nM (inactive)

## COc1ccc(C(=O)/C=C/c2ccc(O)c(O)c2)c(OC)c1
HT-29
  GI50: 7760 nM (inactive)
SW-620
  GI50: 1220 nM (inactive)
ACHN
  GI50: 10900 nM (inactive)
OVCAR-3
  GI50: 242 nM (active)
IGROV-1
  GI50: 887 nM (active)
UO-31
  GI50: 9330 nM (inactive)
OVCAR-5
  GI50: 15600 nM (inactive)
HCT-116
  GI50: 638 nM (active)
NCI-H23
  GI50: 2310 nM (inactive)
SNB-75
  GI50: 1910 nM (inactive)
RXF 393
  GI50: 8180 nM (inactive)
T47D
  GI50: 1550 nM (inactive)
A498
  GI50: 4500 nM (inactive)
HOP-92
  GI50: 28800 nM (inactive)
K562
  GI50: 442 nM (active)
TK-10
  GI50: 6140 nM (inactive)
SF-268
  GI50: 1400 nM (inactive)
MCF7
  GI50: 301 nM (active)
U-251
  GI50: 1700 nM (inactive)
CCRF-CEM
  GI50: 508 nM (active)

## CC1CC[C@@]2(OC1)OC1C[C@H]3[C@@H]4CC[C@H]5CC(OC6OC(CO)C(O)C(OC7OC(CO)C(OC8OC(CO)C(O)C(OC9OC(CO)C(O)C(O)C9O)C8OC8OC(CO)C(O)C(O)C8O)C(O)C7O)C6O)[C@H](O)CC5(C)[C@H]4CCC3(C)C1[C@@H]2C (stereo not given in full)
HT-29
  GI50: 3520 nM (inactive)
SW-620
  GI50: 2220 nM (inactive)
ACHN
  GI50: 1900 nM (inactive)
OVCAR-3
  GI50: 900 nM (active)
IGROV-1
  GI50: 1440 nM (inactive)
UO-31
  GI50: 2000 nM (inactive)
OVCAR-5
  GI50: 5330 nM (inactive)
HCT-116
  GI50: 5140 nM (inactive)
NCI-H23
  GI50: 5310 nM (inactive)
SNB-75
  GI50: 3980 nM (inactive)
RXF 393
  GI50: 1340 nM (inactive)
T47D
  GI50: 1370 nM (inactive)
A498
  GI50: 1060 nM (active)
HOP-92
  GI50: 4880 nM (inactive)
K562
  GI50: 3370 nM (inactive)
TK-10
  GI50: 5570 nM (inactive)
SF-268
  GI50: 5000 nM (inactive)
MCF7
  GI50: 1660 nM (inactive)
U-251
  GI50: 2700 nM (inactive)
CCRF-CEM
  GI50: 2080 nM (inactive)

## Cc1cnc2[nH]c(-c3cccc(F)c3)cc(=O)c2c1
HT-29
  GI50: 30.8 nM (active)
SW-620
  GI50: 25.2 nM (active)
ACHN
  GI50: 66.4 nM (active)
OVCAR-3
  GI50: 13.9 nM (active)
IGROV-1
  GI50: 161 nM (active)
UO-31
  GI50: 72.4 nM (active)
OVCAR-5
  GI50: 73.8 nM (active)
HCT-116
  GI50: 34 nM (active)
NCI-H23
  GI50: 151 nM (active)
SNB-75
  GI50: 17.1 nM (active)
RXF 393
  GI50: 41.8 nM (active)
T47D
  GI50: 15600 nM (inactive)
A498
  GI50: 57.9 nM (active)
HOP-92
  GI50: 1400 nM (inactive)
K562
  GI50: 26.6 nM (active)
TK-10
  GI50: 161 nM (active)
SF-268
  GI50: 70.5 nM (active)
MCF7
  GI50: 115 nM (active)
U-251
  GI50: 40.5 nM (active)
CCRF-CEM
  GI50: 35.3 nM (active)

## CN(O)C(=O)CCC(NC(=O)CCC(N)C(=O)O)C(=O)NCC(=O)O (stereo not given)
HT-29
  GI50: > 100000 nM (inactive)
SW-620
  GI50: > 100000 nM (inactive)
ACHN
  GI50: > 100000 nM (inactive)
OVCAR-3
  GI50: > 100000 nM (inactive)
IGROV-1
  GI50: > 100000 nM (inactive)
UO-31
  GI50: > 100000 nM (inactive)
OVCAR-5
  GI50: > 100000 nM (inactive)
HCT-116
  GI50: > 100000 nM (inactive)
NCI-H23
  GI50: > 100000 nM (inactive)
SNB-75
  GI50: > 100000 nM (inactive)
RXF 393
  GI50: > 100000 nM (inactive)
T47D
  GI50: > 100000 nM (inactive)
A498
  GI50: > 100000 nM (inactive)
HOP-92
  GI50: > 100000 nM (inactive)
K562
  GI50: > 100000 nM (inactive)
TK-10
  GI50: > 100000 nM (inactive)
SF-268
  GI50: > 100000 nM (inactive)
MCF7
  GI50: > 100000 nM (inactive)
U-251
  GI50: > 100000 nM (inactive)
CCRF-CEM
  GI50: > 100000 nM (inactive)

## O=C1C2CC(Cl)C(SSC3CC4C(=O)N(SC(Cl)(Cl)C(Cl)Cl)C(=O)C4CC3Cl)CC2C(=O)N1SC(Cl)(Cl)C(Cl)Cl (stereo not given)
HT-29
  GI50: 1770 nM (inactive)
SW-620
  GI50: 1270 nM (inactive)
ACHN
  GI50: 2230 nM (inactive)
OVCAR-3
  GI50: 2050 nM (inactive)
IGROV-1
  GI50: 1300 nM (inactive)
UO-31
  GI50: 1940 nM (inactive)
OVCAR-5
  GI50: 17000 nM (inactive)
HCT-116
  GI50: 2490 nM (inactive)
NCI-H23
  GI50: 1660 nM (inactive)
SNB-75
  GI50: 2050 nM (inactive)
RXF 393
  GI50: 1330 nM (inactive)
T47D
  GI50: 2250 nM (inactive)
A498
  GI50: 2810 nM (inactive)
HOP-92
  GI50: 1610 nM (inactive)
K562
  GI50: 979 nM (active)
TK-10
  GI50: 2590 nM (inactive)
SF-268
  GI50: 1650 nM (inactive)
MCF7
  GI50: 1670 nM (inactive)
U-251
  GI50: 1400 nM (inactive)
CCRF-CEM
  GI50: 249 nM (active)

## CC(C)(CO)CNc1cc(Cl)nc(N)n1
HT-29
  GI50: > 100000 nM (inactive)
SW-620
  GI50: > 100000 nM (inactive)
ACHN
  GI50: > 100000 nM (inactive)
OVCAR-3
  GI50: > 100000 nM (inactive)
IGROV-1
  GI50: > 100000 nM (inactive)
UO-31
  GI50: > 100000 nM (inactive)
OVCAR-5
  GI50: > 100000 nM (inactive)
HCT-116
  GI50: > 100000 nM (inactive)
NCI-H23
  GI50: > 100000 nM (inactive)
SNB-75
  GI50: > 100000 nM (inactive)
RXF 393
  GI50: > 100000 nM (inactive)
T47D
  GI50: 43200 nM (inactive)
A498
  GI50: > 100000 nM (inactive)
HOP-92
  GI50: > 100000 nM (inactive)
K562
  GI50: > 100000 nM (inactive)
TK-10
  GI50: > 100000 nM (inactive)
SF-268
  GI50: > 100000 nM (inactive)
MCF7
  GI50: > 100000 nM (inactive)
U-251
  GI50: > 100000 nM (inactive)
CCRF-CEM
  GI50: > 100000 nM (inactive)
